Measurements as given in patent US12350273B2, “Treatment of SMA” (Hoffmann-La Roche Inc., priority 2017, dated 2025).

Experiments:
SMN protein [1] = assay: SMN protein (HTRF) in brain and quadriceps muscle of C/C-allele mice; type: in vivo
Protocol: (§1) FIG. 1A-FIG. 1D: Increase in SMN Protein Expression In Vivo • HET=heterogygous. • C/C-allele mice and SMNΔ7 mice were treated with RO7034067. One hour after the last dose, brains and quadriceps muscles were collected and levels of SMN protein were assessed by HTRF. FIG. 1A. SMN protein in brains of C/C-allele mice. FIG. 1B. SMN protein in brains of SMNΔ7 mice. FIG. 1C. SMN protein in quadriceps muscle of C/C-allele mice. FIG. 1D. SMN protein in quadriceps muscle of SMNΔ7 mice. Data represent means±SEM of 5-6 animals per group and are expressed as fold change vs. vehicle-treated controls. *=p<0.05, **=p<0.01, ***=p<0.001 vs. untreated controls.
(§2) Adult C/C-allele mice were treated for 10 days with vehicle or RO7034067 (1, 3 or 10 mg/kg per os [PO], daily), and PND3 SMNΔ7 mice were treated for 7 days with vehicle or RO7034067 (0.1, 0.3, 1 or 3 mg/kg intraperitoneal [IP], daily). […] In SMNΔ7 mice, the SMN protein increase was only partial in both brain and muscle, reaching approximately 43% (brain) and 55% (muscle) of protein levels in heterozygous mice.

SMN protein [2] = assay: SMN protein (HTRF) in brain and quadriceps muscle of SMNΔ7 mice; type: in vivo
Protocol: as §1, §2

human iPSCs = assay: Cell cycle analysis of human iPSCs (flow cytometry); type: cell-based; conditions: for percentage of events in G1 phase, mean / percentage of events in G2 phase, mean / percentage of events in S phase, mean: 24 h
Protocol: (§3) For the analysis of the cell cycle, monkey stem cells were detached with Accutase (Stem Cell Technologies) and plated at 15000 cells/cm2 in 6 well plates coated with Matrigel (BD Biosciences) in MT medium supplemented with 10 ng/ml ActivinA, 15 ng/ml FGF2, and 10 μM Rock inhibitor. Cells were expanded for 1 day and then synchronized by starvation for 7 h in MT medium without supplements FGF2 and ActivinA. Before flow cytometry, cells were incubated for 24 h with fresh MT medium containing supplements FGF2 and ActivinA and test items at 80 nM, 400 nM, and 2000 nM or 30 nM rapamycin as positive control to arrest cells in G1 phase. Human stem cells were detached with Accutase (Stem Cell Technologies) and plated at 40000 cells/cm2 in 6 well plates coated with Matrigel (BD Biosciences) in mTeSR1 supplemented with 10 μM Rock Inhibitor Y-27632 (Sigma-Aldrich). Cells were expanded for 3 days with daily medium change. Since human iPSCs lose their properties during starvation by growth factor withdrawal, stem cells were synchronized with 200 ng/ml Nocodazole (Sigma-Aldrich) for 5 h and washed subsequently 2 times with mTesR1 Medium. Before flow cytometry, cells were incubated for 24 h with fresh TesR1 medium containing test items at 80 nM, 400 nM, and 2000 nM or 30 nM rapamycin as positive control to arrest cells in G1 phase.
(§4) For cell cycle analysis, human iPSCs were washed with PBS, detached with Accutase (Stem Cell Technologies) and collected by centrifugation. Cells were stained for 1 h at 37° C. with 600 ul of 7 AAD/Saponin/RNAse mix ([…] 7 AAD (#559925, BD), 50 μg/ml RNase, and 0.03% Saponin dissolved in FACS buffer (PBS, 5% FBS, 10 mM Hepes)). Cynomolgus monkey iPSCs were washed with PBS, detached with Accutase (Stem Cell Technologies) and collected by centrifugation. Cells were stained for 30 min at 37° C. in 300 ul standard MT medium (with FGF2 and ActivinA) containing 1 ul Vybrant Dye Cycle Violet Stain (#V35003, 1000× stock, Invitrogen) per ml medium. Additionally 2 ul 7 AAD (50 μg/ml 7 AAD) were added without permeabilization to label dead cells; cells were incubated for 10 min at 37° C. Flow cytometry analysis was performed using a Canto II cytometer (BD Biosciences) and data were analysed with the FlowJo software.

Cynomolgus monkey iPSCs = assay: Cell cycle analysis of Cynomolgus monkey iPSCs (flow cytometry); type: cell-based; conditions: for percentage of events in G1 phase, mean / percentage of events in G2 phase, mean / percentage of events in S phase, mean: Cynomolgus monkey iPSCs, 24 h
Protocol: as §3, §4

MADD gene transcripts = assay: 2-week dose-range finding toxicity study in rat: MADD splicing in spleen, duodenum, testis; type: in vivo; conditions: rats treated 2 weeks, highest dose of 7.5 mg/kg/day
Protocol: Gene expression analysis was performed in spleen, duodenum, and testis in rats treated for 2 weeks (MADD gene). […] The changes in splicing of MADD transcripts are consistent with the observations of apoptosis in the GI tract observed at the same dose since MADD gene products have been reported to interfere with the apoptosis processes.

retina = assay: 26 weeks of treatment in pigmented rats: retina; type: in vivo

## Cc1cn2nc(-c3cc(=O)n4cc(N5CCNC6(CC6)C5)ccc4n3)cc(C)c2n1 [RO7034067, 7-(4,7-diazaspiro[2.5]octan-7-yl)-2-(2,8-dimethylimidazo[1,2-b]pyridazin-6-yl)pyrido[1,2-a]pyrimidin-4-one]
SMN protein [1]; C/C-allele mice, 10 mg/kg
  SMN levels in muscle compared with heterozygous mice: no different from those in heterozygous mice
SMN protein [1]; adult C/C-allele mice, 10 mg/kg PO daily, 10 days
  SMN protein levels in brain and muscle tissue, maximum effect: 2-3 fold
SMN protein [2]; SMNΔ7 mice, brain
  SMN protein in brain as share of protein levels in heterozygous mice: approximately 43%
SMN protein [2]; SMNΔ7 mice, muscle
  SMN protein in muscle as share of protein levels in heterozygous mice: ~55%
SMN protein [2]; neonatal SMNΔ7 mice, 1-3 mg/kg IP daily, 7 days
  SMN protein levels in brain and muscle tissue, maximum effect: 2-3 fold
SMN protein [2]; severe SMNΔ7 mouse model
  increase in SMN protein possible: more than 100%
Human iPSCs; 80 nM
  percentage of events in G1 phase, mean: 44.6%
  percentage of events in G2 phase, mean: 29.2%
  percentage of events in S phase, mean: 26.2%
Human iPSCs; 400 nM
  percentage of events in G1 phase, mean: 40.8%
  percentage of events in G2 phase, mean: 31.4%
  percentage of events in S phase, mean: 27.8%
Human iPSCs; 2000 nM
  percentage of events in G1 phase, mean: 37.6%
  percentage of events in G2 phase, mean: 29.3%
  percentage of events in S phase, mean: 33.1%
Human iPSCs; concentration-dependent
  effect on cell cycle: cell cycle arrest in S phase
Cynomolgus monkey iPSCs; 80 nM
  percentage of events in G1 phase, mean: 33.8%
  percentage of events in G2 phase, mean: 52.2%
  percentage of events in S phase, mean: 14.0%
Cynomolgus monkey iPSCs; 400 nM
  percentage of events in G1 phase, mean: 30.3%
  percentage of events in G2 phase, mean: 55.8%
  percentage of events in S phase, mean: 14.0%
Cynomolgus monkey iPSCs; 2000 nM
  percentage of events in G1 phase, mean: 25.3%
  percentage of events in G2 phase, mean: 61.3%
  percentage of events in S phase, mean: 13.4%
Cynomolgus monkey iPSCs; monkey iPSCs, concentration-dependent
  effect on cell cycle: cell cycle arrest in G2 phase
MADD gene transcripts
  gene expression analysis of MADD gene transcripts: splicing response
retina
  retinal effects: no evidence for any retinal effects
